Assay: water solubility
Format: physicochemical

## CCCCP(=N)(CCCC)CCCC [tributylphosphinimine]
  solubility in water: soluble in water

From patent publication US5601800A, “New multifunctional ligands for potential use in the design therapeutic or diagnostic radiopharmaceutical imaging agents” (Curators of the University of Missouri, priority 1994, dated 1997)
